Where two headings read alike, the source gives them in different places. Bridge positions count the residues as written; N and C are the ends. Square brackets hold non-standard residues; d marks the D form. Peptide text beside a SMILES is read from it. I, II: the chains in the order shown. * marks the point of attachment. Quinoxaline2carbonyl = O=C(c1cnc2ccccc2n1)*; NMeV = CN[CH](C(=O)O)C(C)C; NMeC = CN[CH](CS)C(=O)O
Experiments:
HEK-293AI2 cells = assay type: cell-based, human
Procedure: To monitor viable cells with active metabolism, we employed a fast resazurin assay. […] To calculate the relative cell viability, the fluorescence of DMSO-treated cells was set to 100%.
Figure 2. Cell-based primary screen for AI-2 biosynthesis inhibitors. (A) Detailed assay protocol of the primary screen using engineered mammalian cells to identify inhibitors of quorum sensing. […] Aliquots of 10 μl of culture supernatants were transferred to black-bottomed assay plates and mixed with 40 μl of V. harveyi MM32 (AI-2 biosensor). AI-2-induced bioluminescence was measured 4 h later and normalized against the controls. In a secondary screen, the dose-response relationships of hit compounds are analyzed. To simultaneously assess effects on cell viability, compound-treated cells were supplemented with PrestoBlue and incubated for 1 h prior to resorufin fluorescence quantification. (B) Z’-evaluation of the AI-2 inhibitor assay. […] Bioactivity and viability are calculated as percentages, based on the positive control value (taken as 100%) and negative control value (taken as 0%). […] Data points in (C) represent means of biological duplicates.

[1] = test system: AI-2 production by HEK-293AI2 cells expressing MTAN and LuxS; assay: HEK-293AI2 / V. harveyi (MM32) AI-2 detection platform (AI-2 production by engineered human cells); assay type: cell-based, human cells; MTAN and LuxS derived from E. coli; conditions: for IC50: HEK-293AI2 cells exposed 24 h, AI-2 in supernatant read by V. harveyi MM32 bioluminescence
Procedure: LuxS (MF688636) and MTAN (MF688635) transgenes derived from E. coli were codon-optimized for stable expression in mammalian cells. For the generation of double stable HEK-293-derived cell line HEK-293AI2 transgenic for simultaneous constitutive PhEFIα-driven MTAN and PhCMV-driven LuxS-eYFP expression, 250,000 cells were first transfected with 2000 ng of pFS168 (PhEFIα-MTAN-pA) and selected in culture medium containing 20 μg/ml blasticidin (cat. no. ant-bl-1; InvivoGen, San Diego, CA, USA) for two weeks. […] After 17 days of selection in medium containing 200 μg/ml (w/v) zeocin (cat. no. ant-zn-1; Invivogen, San Diego, CA, USA) and 20 μg/ml blasticidin, resistant monoclonal cells (HEK-293sFS26cx) were obtained by limiting dilution cloning and screened for AI-2 activity in their supernatants. […] The cell line was regularly tested for the absence of mycoplasma.
20 μl of HEK-293AI2 cells (10^4 cells per well) were resuspended in 20 μl Dulbecco's modified Eagle's medium (DMEM; Thermo Fisher, Basel, Switzerland, low glucose, without phenol red, cat. no. 11880–028) supplemented with 4 mM L-glutamine (Thermo Fisher, Basel, Switzerland, cat. no. 25030-024), 30 μg/ml kanamycin and 1% FCS and seeded into a poly-L-lysine-coated Black Greiner clear-bottom 384-well plate (cat. no. 3845; Corning, New York, USA) using a Multidrop Combi Reagent Dispenser (cat. no. 5840300; Thermo Fisher, Basel, Switzerland). Cells were incubated for 20 h and then 20 nL of individual compounds (stock solution in 5 mM in DMSO) or controls (stock solutions of novobiocin, 10 mM in DMSO; staurosporin, 20 mM in DMSO) were transferred with Echo 550 liquid handler (Labcyte, San Jose, CA, USA) into the plate.
Compound-treated cells were cultivated for 24 hours and the cell culture supernatants (10 μl) were transferred to dry black polystyrene 384-well plates (Corning, New York, USA, cat. no. 3571). The AI-2 activity was quantified by adding 40 μl per 384-well of V. harveyi MM32 AI-2 reporter strain, diluted 1:500 in AB-Medium from a stationary overnight culture grown in Luria Marine (LM)-medium containing 20 g of NaCl, 10 g of Bacto Tryptone (Difco Laboratories), and 5 g of yeast extract (BBL) ([25]). Plates were sealed with BREATHseal™ (cat. no. 7.676 050; Greiner Bio-One, Frickenhausen, Germany) and incubated for 4 h at 30°C and 200 rpm on a Multitron Pro shaker (Infors, Bottmingen, Switzerland). Bioluminescence was measured on an Envision 2104 Multilabel plate reader (Perkin Elmer, Waltham, USA) with 1 s integration time. […] The initial hit inclusion criteria were a toxicity score of less than 50% and an AI-2 activity reduction below the average of all compound activity three times the standard deviation (-49.39% of activity).
Figure 2. Cell-based primary screen for AI-2 biosynthesis inhibitors. (A) Detailed assay protocol of the primary screen using engineered mammalian cells to identify inhibitors of quorum sensing. […] Aliquots of 10 μl of culture supernatants were transferred to black-bottomed assay plates and mixed with 40 μl of V. harveyi MM32 (AI-2 biosensor). AI-2-induced bioluminescence was measured 4 h later and normalized against the controls. In a secondary screen, the dose-response relationships of hit compounds are analyzed. To simultaneously assess effects on cell viability, compound-treated cells were supplemented with PrestoBlue and incubated for 1 h prior to resorufin fluorescence quantification. (B) Z’-evaluation of the AI-2 inhibitor assay.

V. harveyi (BB170) = assay: V. harveyi BB170 growth (OD600 after 24 h); assay type: cell-based, Vibrio harveyi; set-up: TC50 (decrease of V. harveyi growth): unit not given beside the values; conditions: V. harveyi BB170, OD600 after 24 h
Procedure: The test strain V. harveyi BB170 was grown overnight in Luria Marine (LM)-medium ([25]). The culture was 1:500 diluted in AB-medium (0.3 M NaCl, 10 mM potassium phosphate, 1 mM L-arginine, […], 1% glycerol) the next day, and then challenged with various chemical compounds. After 5 h of shaking at 200 rpm at 30°C, the bioluminescence of BB170 was quantified on a GENios Pro plate reader (Tecan, Männedorf, Switzerland).
Figure 3. Bioactivity of hit candidates against Vibrio harveyi. Effect on bacterial growth. V. harveyi (BB170) was grown in the presence of individual compounds (A–H) for 5 h and the bioluminescence (green circles) was quantified. After a total of 24 h, bacterial growth (+) was evaluated by measuring the optical density (OD600). The gray translucent background in (C) represents the narrow range within which the compound reduces bioluminescence without affecting growth.

MTAN = conditions: cited from earlier work; for Ki: read-out: Ki (reported, in vitro)

Compound | Viability of Ctrl (%) (HEK-293AI2 cells; human, 5 µM) | IC50 ([1]; Homo sapiens, 24 h) | IC50 [1] | also measured
CCCCC[C@H](CC(=O)NO)C(=O)N[C@H](C(=O)N1CCC[C@H]1CO)C(C)C [Actinonin] | –11.93% | 1000 nM |  | 
CNC1=NC(=O)[C@H]([C@@H](C)c2c[nH]c3ccccc23)O1 [CHEMBL283366] |  |  | 180 nM | 
CO/N=C(\C(=O)N[C@@H]1C(=O)N2C(C(=O)O)=C(CSc3nc(=O)c(=O)[nH]n3C)CS[C@H]12)c1csc(N)n1 [Ceftriaxone] | –4.78% | 3490 nM |  | 
Nc1nc(Cl)nc2c1ncn2[C@@H]1O[C@H](CO)[C@@H](O)[C@@H]1F [Clofarabine] | 15.42% | 160 nM |  | TC50 (decrease of V. harveyi growth) (V. harveyi (BB170)): 4.4 × 10^−7
C[C@H]1O[C@@H](n2cc(F)c(=O)[nH]c2=O)[C@H](O)[C@@H]1O [Doxifluridine] | –0.0725% | 240 nM |  | 
CC[C@H]1OC(=O)[C@H](C)[C@@H](O[C@H]2C[C@@](C)(OC)[C@@H](O)[C@H](C)O2)[C@H](C)[C@@H](O[C@@H]2O[C@H](C)C[C@H](N(C)C)[C@H]2O)[C@](C)(O)C[C@@H](C)C(=O)[C@H](C)[C@@H](O)[C@]1(C)O.O=C(O)[C@H](O)[C@H](O)[C@@H](O)[C@H](O)[C@H](O)CO [Erythrohycin Gluceptate] |  |  | 1310 nM | 
CC[C@H]1OC(=O)[C@H](C)[C@@H](O[C@H]2C[C@@](C)(OC)[C@@H](O)[C@H](C)O2)[C@H](C)[C@@H](O[C@@H]2O[C@H](C)C[C@H](N(C)C)[C@H]2O)[C@](C)(O)C[C@@H](C)C(=O)[C@H](C)[C@@H](O)[C@H]1C [Erythromycin B] |  |  | 1420 nM | Viability of Ctrl (%) (HEK-293AI2 cells): 4.99%
O=c1[nH]c(=O)n([C@H]2C[C@H](O)[C@@H](CO)O2)cc1F [Floxuridine] | –22.28% | 770 nM |  | 
Nc1ncnc2c([C@@H]3O[C@H](CO)[C@@H](O)[C@H]3O)[nH]nc12 [Formycin] |  | 2110 nM |  | Ki (MTAN; competitive MTAN inhibition): 10000 nM; IC50 (MTAN; competitive MTAN inhibition, read-out: Reported IC50 (in vitro)): 57000 nM
C[C@@H]1C/C=C2\SC[C@@H](NC(=O)c3coc(n3)C[C@H](O)C[C@H](O)/C=C/C=C/CNC2=O)C(=O)O1 [Griseoviridin] |  |  | 4550 nM | 
CC(=O)NC[C@H]1CN(c2ccc(N3CCOCC3)c(F)c2)C(=O)O1 [Linezolid] | 0.38% | 4160 nM |  | 
CSC[C@H]1CN(Cc2c[nH]c3c(N)ncnc23)C[C@@H]1O [MT-DADMe-ImmA] |  |  | 170 nM | Ki (MTAN; MTAN inhibition): 0.002 nM
C/C=C\C=C\[C@@H]1O[C@](O)([C@H](CC)C(=O)NC/C=C/C=C(\C)[C@@H](OC)[C@H](C)[C@@H]2O[C@H](/C=C/C=C/C=C(\C)C(=O)c3c(O)cc[nH]c3=O)[C@H](O)[C@@H]2O)[C@H](O)[C@H](O)C1(C)C [Mocimycin] |  |  | 1370 nM | 
COc1cc(C)c(Cc2cnc(N)nc2N)cc1OC [Ormetoprim] |  | 3660 nM |  | 
NC(=O)c1ncn([C@@H]2O[C@H](CO)[C@@H](O)[C@H]2O)n1 [Ribavirin] |  | 190 nM |  | 
CO[C@H]1/C=C/O[C@@]2(C)Oc3c(C)c(O)c4c(c3C2=O)C2=NC3(CCN(CC(C)C)CC3)NC2=C(NC(=O)/C(C)=C\C=C\[C@H](C)[C@H](O)[C@@H](C)[C@@H](O)[C@@H](C)[C@H](OC(C)=O)[C@@H]1C)C4=O [Rifabutin] | –5.07% | 2190 nM |  | 
CO[C@H]1/C=C/O[C@@]2(C)Oc3c(C)c(O)c4c(O)c(c(/C=N/N5CCN(C6CCCC6)CC5)c(O)c4c3C2=O)NC(=O)/C(C)=C\C=C\[C@H](C)[C@H](O)[C@@H](C)[C@@H](O)[C@@H](C)[C@H](OC(C)=O)[C@@H]1C [Rifapentine] | –0.98% | 2530 nM |  | 
O=CN(O)C[C@@H](CC1CCCC1)C(=O)N1C[C@H](F)C[C@H]1C(=O)Nc1cnccn1 [SCHEMBL12230405] |  |  | 150 nM | 
O=CN(O)C[C@@H](CC1CCC1)C(=O)N1C[C@H](F)C[C@H]1C(=O)Nc1cccnn1 [SCHEMBL12230407] |  |  | 630 nM | 
O=CN(O)C[C@@H](CC1CCCC1)C(=O)N1C[C@H](F)C[C@H]1C(=O)Nc1cccnn1 [SCHEMBL12230409] |  |  | 640 nM | 
CCCC[C@H](CN(O)C=O)C(=O)N1CCC[C@H]1C(=O)Nc1cc(CC)ccn1 [SCHEMBL14510040] |  |  | 1090 nM | 
CC1NC(=O)C(NC(=O)c2cnc3ccccc3n2)COC(=O)C(C(C)C)N(C)C(=O)C2CSSCC(C(=O)N(C)C(C(C)C)C(=O)OCC(NC(=O)c3cnc4ccccc4n3)C(=O)NC(C)C(=O)N2C)N(C)C1=O (centres unmarked) [Triostin A] (I: Quinoxaline2carbonyl-SA[NMeC][NMeV] / II: Quinoxaline2carbonyl-SA[NMeC][NMeV]; ester I:1-II:C, I:C-II:1; disulfide I:3-II:3; configuration not given here) |  |  | 2140 nM | 
CO[C@@H]1[C@@H](OC(N)=O)[C@@H](O)[C@H](Oc2ccc3c(O)c(NC(=O)c4ccc(O)c(CC=C(C)C)c4)c(=O)oc3c2C)OC1(C)C [novobiocin] |  |  |  | Bioluminescence of V. harveyi (MM32) ([1]; assay validation, active control novobiocin 10 μM): completely shut down the bioluminescence
Erythromycin |  |  | 1930 nM | 
Levomycin |  |  | 370 nM | 
